According to US20240139220A1, “TREATMENT OF HPV INFECTION” (priority 2022, published 2024):
Converted amounts (≈) assume the structure as drawn. Like-named read-outs stand apart in the source and are kept apart here.

How the values were obtained:
Type in all cases: physicochemical
[1] = Bulk stability, accelerated storage for one week (HPLC, XRPD)
Protocol: Bulk stability: Accelerated stability experiments were conducted at 25° C./92% RH and 40° C./75% RH in an open container, 60° C. in a tight container for one week.
Samples were characterized by XRPD and HPLC and inspected for color change.
Accelerated stability experiments were conducted at 25° C./92% RH in an open container, at 40° C./75% RH in an open container, and at 60° C. in a tight container for one week.

[2] = Solubility in buffers, water and simulated vaginal fluid at 37° C.
Protocol: About 4 mg of Compound I Pattern 1 was added into 2 mL of buffer solution.
(§1) Solubility was tested in five media, pH 3.0 citrate buffer, pH 4.5 acetate buffer, pH 6.8 phosphate buffer, water, simulated vaginal fluid (pH 4.2) at 37° C. for 0.5 h and 2 h.
The salt amount used is equivalent to 10 mg anhydrous free base. […] The obtained clear solutions were analyzed by pH meter for pH, and solubility was determined by observation.
as §1

[3] = Hygroscicity by Dynamic Vapor Sorption (DVS) at 25° C.; details: for D. (%) Cycle 1 (Desorption) / D. (%) Cycle 2 (Desorption) / S. (%) Cycle 1 (Sorption) / S. (%) Cycle 2 (Sorption) / XRPD after DVS test: 25° C.; for XRPD after DVS test: cycle 40-0-95-0-40% RH; for Water uptake: DVS 25° C.
Protocol: Hygroscopicity was investigated by DVS at 25° C., using the following method: […]

[4] = Approximate solubility in solvents at 25° C. and 50° C. by visual observation; details: thermodynamic from solid, read-out: Solubility
Protocol: The maximum volume of each solvent added was 1 mL. Approximate solubility was determined by visual observation.
Maximum volume of each solvent added was 1 mL. Approximate solubility was determined by visual observation.

[5] = 25° C., 84% RH, open container, 2 days
[6] = 25° C., 92% RH, open container, one week
[7] = 40° C., 75% RH, open container, one week
[8] = 60° C., tight container, one week
[9] = Simulated vaginal fluid (pH adjusted with 0.2N NaOH)
[10] = cycle of 40-0-95-0-45% relative humidity

Compound: CCOC(=O)C(C)NP(=O)(COCCn1cnc2c(OC)nc(N)nc21)OCc1ccccc1.CCOC(=O)C(C)NP(=O)(COCCn1cnc2c(OC)nc(N)nc21)OCc1ccccc1.O=C(O)C=CC(=O)O (mixture of isomers) [Compound I Hemifumarate Pattern 1]
- XRPD [1, 5]: No change
- HPLC (chemical purity) [1, 6]: 97.0%
- XRPD [1, 6]: No change
- HPLC (chemical purity) [1, 7]: 90.9%
- XRPD [1, 7]: No change
- Degradation compared ([1]; 40° C./75% RH and 60° C. for one week): tends to degrade more than Compound I monofumarate Pattern 1
- HPLC (chemical purity) [1, 8]: 82.3%
- XRPD [1, 8]: No change
- HPLC (chemical purity) ([1]; Initial): 97.8%
- Solubility 0.5 hrs [2, 9]: >2 mg/mL
- Solubility 2 hrs [2, 9]: >2 mg/mL
- pH at 2 hrs [2, 9]: (5.30)
- Solubility 0.5 hrs ([2]; Water): >2 mg/mL
- Solubility 2 hrs ([2]; Water): >2 mg/mL
- pH at 2 hrs ([2]; Water): (3.38)
- Solubility 0.5 hrs ([2]; pH 3.0 100 mM citrate buffer): >2 mg/mL
- Solubility 2 hrs ([2]; pH 3.0 100 mM citrate buffer): >2 mg/mL
- pH at 2 hrs ([2]; pH 3.0 100 mM citrate buffer): (3.07)
- Solubility 0.5 hrs ([2]; pH 4.5 50 mM acetate buffer): >2 mg/mL
- Solubility 2 hrs ([2]; pH 4.5 50 mM acetate buffer): >2 mg/mL
- pH at 2 hrs ([2]; pH 4.5 50 mM acetate buffer): (4.45)
- Solubility 0.5 hrs ([2]; pH 6.8 50 mM phosphate buffer): >2 mg/mL
- Solubility 2 hrs ([2]; pH 6.8 50 mM phosphate buffer): >2 mg/mL
- pH at 2 hrs ([2]; pH 6.8 50 mM phosphate buffer): (6.68)
- D. (%) Cycle 1 (Desorption) ([3]; 0% RH): 0.13%
- D. (%) Cycle 2 (Desorption) ([3]; 0% RH): 0.00%
- S. (%) Cycle 1 (Sorption) ([3]; 0% RH): 0.13%
- S. (%) Cycle 2 (Sorption) ([3]; 0% RH): 0.00%
- D. (%) Cycle 1 (Desorption) ([3]; 10% RH): 0.36%
- D. (%) Cycle 2 (Desorption) ([3]; 10% RH): 0.23%
- S. (%) Cycle 1 (Sorption) ([3]; 10% RH): 0.34%
- S. (%) Cycle 2 (Sorption) ([3]; 10% RH): 0.20%
- D. (%) Cycle 1 (Desorption) ([3]; 20% RH): 0.56%
- D. (%) Cycle 2 (Desorption) ([3]; 20% RH): 0.44%
- S. (%) Cycle 1 (Sorption) ([3]; 20% RH): 0.53%
- S. (%) Cycle 2 (Sorption) ([3]; 20% RH): 0.40%
- D. (%) Cycle 1 (Desorption) ([3]; 30% RH): 0.79%
- D. (%) Cycle 2 (Desorption) ([3]; 30% RH): 0.68%
- S. (%) Cycle 1 (Sorption) ([3]; 30% RH): 0.73%
- S. (%) Cycle 2 (Sorption) ([3]; 30% RH): 0.61%
- D. (%) Cycle 1 (Desorption) ([3]; 40% RH): 1.04%
- D. (%) Cycle 2 (Desorption) ([3]; 40% RH): 0.94%
- S. (%) Cycle 1 (Sorption) ([3]; 40% RH): 0.96%
- S. (%) Cycle 2 (Sorption) ([3]; 40% RH): 0.87%
- D. (%) Cycle 2 (Desorption) ([3]; 50% RH): 1.26%
- S. (%) Cycle 1 (Sorption) ([3]; 50% RH): 1.22%
- D. (%) Cycle 2 (Desorption) ([3]; 60% RH): 1.68%
- S. (%) Cycle 1 (Sorption) ([3]; 60% RH): 1.57%
- D. (%) Cycle 2 (Desorption) ([3]; 70% RH): 2.25%
- S. (%) Cycle 1 (Sorption) ([3]; 70% RH): 2.04%
- D. (%) Cycle 2 (Desorption) ([3]; 80% RH): 3.14%
- S. (%) Cycle 1 (Sorption) ([3]; 80% RH): 2.80%
- D. (%) Cycle 2 (Desorption) ([3]; 90% RH): 4.84%
- S. (%) Cycle 1 (Sorption) ([3]; 90% RH): 4.54%
- D. (%) Cycle 2 (Desorption) ([3]; 95% RH): 6.87%
- S. (%) Cycle 1 (Sorption) ([3]; 95% RH): 6.87%
- XRPD after DVS test [3]: No form change,
- Water uptake ([3]; up to 95% RH): ~6.9%

Compound: CCOC(=O)C(C)NP(=O)(COCCn1cnc2c(OC)nc(N)nc21)OCc1ccccc1 (mixture of isomers) [Compound I free base Pattern 1]
- XRPD [1, 5]: No change
- HPLC (chemical purity) [1, 6]: 98.5%
- XRPD [1, 6]: No change
- HPLC (chemical purity) [1, 7]: 95.2%
- XRPD [1, 7]: No change
- HPLC (chemical purity) [1, 8]: 98.5%
- XRPD [1, 8]: No change
- HPLC (chemical purity) ([1]; Initial): 98.7%
- Solubility 0.5 hrs [2, 9]: >2 mg/mL
- Solubility 2 hrs [2, 9]: >2 mg/mL
- pH at 2 hrs [2, 9]: (5.53)
- Solubility 0.5 hrs ([2]; Water): >2 mg/mL
- Solubility 2 hrs ([2]; Water): >2 mg/mL
- pH at 2 hrs ([2]; Water): (7.55)
- Solubility 0.5 hrs ([2]; pH 3.0 100 mM citrate buffer): >2 mg/mL
- Solubility 2 hrs ([2]; pH 3.0 100 mM citrate buffer): >2 mg/mL
- pH at 2 hrs ([2]; pH 3.0 100 mM citrate buffer): (2.98)
- Solubility 0.5 hrs ([2]; pH 4.5 50 mM acetate buffer): >2 mg/mL
- Solubility 2 hrs ([2]; pH 4.5 50 mM acetate buffer): >2 mg/mL
- pH at 2 hrs ([2]; pH 4.5 50 mM acetate buffer): (4.50)
- Solubility 0.5 hrs ([2]; pH 6.8 50 mM phosphate buffer): >2 mg/mL
- Solubility 2 hrs ([2]; pH 6.8 50 mM phosphate buffer): >2 mg/mL
- pH at 2 hrs ([2]; pH 6.8 50 mM phosphate buffer): (6.81)
- D. (%) Cycle 1 (Desorption) ([3]; 0% RH): 0.00%
- D. (%) Cycle 2 (Desorption) ([3]; 0% RH): 0.19%
- S. (%) Cycle 1 (Sorption) ([3]; 0% RH): 0.00%
- S. (%) Cycle 2 (Sorption) ([3]; 0% RH): 0.19%
- D. (%) Cycle 1 (Desorption) ([3]; 10% RH): 0.11%
- D. (%) Cycle 2 (Desorption) ([3]; 10% RH): 0.37%
- S. (%) Cycle 1 (Sorption) ([3]; 10% RH): 0.08%
- S. (%) Cycle 2 (Sorption) ([3]; 10% RH): 0.22%
- D. (%) Cycle 1 (Desorption) ([3]; 20% RH): 0.23%
- D. (%) Cycle 2 (Desorption) ([3]; 20% RH): 0.57%
- S. (%) Cycle 1 (Sorption) ([3]; 20% RH): 0.17%
- S. (%) Cycle 2 (Sorption) ([3]; 20% RH): 0.30%
- D. (%) Cycle 1 (Desorption) ([3]; 30% RH): 0.47%
- D. (%) Cycle 2 (Desorption) ([3]; 30% RH): 0.83%
- S. (%) Cycle 1 (Sorption) ([3]; 30% RH): 0.28%
- S. (%) Cycle 2 (Sorption) ([3]; 30% RH): 0.44%
- D. (%) Cycle 1 (Desorption) ([3]; 40% RH): 0.60%
- D. (%) Cycle 2 (Desorption) ([3]; 40% RH): 1.09%
- S. (%) Cycle 1 (Sorption) ([3]; 40% RH): 0.41%
- S. (%) Cycle 2 (Sorption) ([3]; 40% RH): 0.62%
- D. (%) Cycle 2 (Desorption) ([3]; 50% RH): 1.48%
- S. (%) Cycle 1 (Sorption) ([3]; 50% RH): 0.61%
- D. (%) Cycle 2 (Desorption) ([3]; 60% RH): 1.96%
- S. (%) Cycle 1 (Sorption) ([3]; 60% RH): 0.85%
- D. (%) Cycle 2 (Desorption) ([3]; 70% RH): 2.78%
- S. (%) Cycle 1 (Sorption) ([3]; 70% RH): 1.14%
- D. (%) Cycle 2 (Desorption) ([3]; 80% RH): 4.33%
- S. (%) Cycle 1 (Sorption) ([3]; 80% RH): 1.64%
- D. (%) Cycle 2 (Desorption) ([3]; 90% RH): 9.10%
- S. (%) Cycle 1 (Sorption) ([3]; 90% RH): 4.27%
- D. (%) Cycle 2 (Desorption) ([3]; 95% RH): 14.32%
- S. (%) Cycle 1 (Sorption) ([3]; 95% RH): 14.32%
- XRPD after DVS test [3]: No form change,
- Water uptake ([3]; up to 90% RH): about 4.3%
- Water uptake ([3]; up to 95% RH): about 14.3%

Compound: CCOC(=O)[C@H](C)N[P@](=O)(COCCn1cnc2c(OC)nc(N)nc21)OCc1ccccc1 (single isomer, unassigned) [Compound III, monofumarate]
- Fold increase of retained water content versus Compound II [3, 10]: 40 fold
- XRPD pattern after humidity cycle [3, 10]: lose one of the peaks
- Water content retained ([3]; exposed to a cycle of 40-0-95-0-45% relative humidity): about 10%

Compound: CCOC(=O)[C@H](C)NP(=O)(COCCn1cnc2c(OC)nc(N)nc21)OCc1ccccc1 (stereo partly drawn) [Compound I, ethyl(((2-(2-amino-6-methoxy-9H-purin-9-yl)ethoxy)methylxbenzyloxy)-phosphoryl)-L-alaninate]
- Solubility ([4]; organic solvent or mixture, Acetone, 25° C.): > 100 mg/mL
- Solubility ([4]; organic solvent or mixture, Acetone, 50° C.): > 500 mg/mL
- Solubility ([4]; organic solvent or mixture, Acetonitrile (ACN), 25° C.): > 100 mg/mL
- Solubility ([4]; organic solvent or mixture, Acetonitrile (ACN), 50° C.): > 500 mg/mL
- Solubility ([4]; organic solvent or mixture, Dichloromethane (DCM), 25° C.): > 100 mg/mL
- Solubility ([4]; organic solvent or mixture, Dichloromethane (DCM), 50° C.): > 500 mg/mL
- Solubility ([4]; organic solvent or mixture, Ethanol (EtOH), 25° C.): > 100 mg/mL
- Solubility ([4]; organic solvent or mixture, Ethanol (EtOH), 50° C.): > 500 mg/mL
- Solubility ([4]; organic solvent or mixture, Ethyl acetate (EA), 25° C.): > 100 mg/mL
- Solubility ([4]; organic solvent or mixture, Ethyl acetate (EA), 50° C.): > 500 mg/mL
- Solubility ([4]; organic solvent or mixture, Heptanes, 25° C.): < 2 mg/mL
- Solubility ([4]; organic solvent or mixture, Heptanes, 50° C.): < 10 mg/mL
- Solubility ([4]; organic solvent or mixture, Isopropanol (IPA), 25° C.): > 100 mg/mL
- Solubility ([4]; organic solvent or mixture, Isopropanol (IPA), 50° C.): > 500 mg/mL
- Solubility ([4]; organic solvent or mixture, Isopropyl acetate (IPAc), 25° C.): > 100 mg/mL
- Solubility ([4]; organic solvent or mixture, Isopropyl acetate (IPAc), 50° C.): > 500 mg/mL
- Solubility ([4]; organic solvent or mixture, Methanol (MeOH), 25° C.): > 100 mg/mL
- Solubility ([4]; organic solvent or mixture, Methanol (MeOH), 50° C.): > 500 mg/mL
- Solubility ([4]; organic solvent or mixture, Methyl ethyl ketone (MEK), 25° C.): > 100 mg/mL
- Solubility ([4]; organic solvent or mixture, Methyl ethyl ketone (MEK), 50° C.): > 500 mg/mL
- Solubility ([4]; organic solvent or mixture, Methyl t-butyl ether (MTBE), 25° C.): < 2 mg/mL
- Solubility ([4]; organic solvent or mixture, Methyl t-butyl ether (MTBE), 50° C.): < 10 mg/mL
- Solubility ([4]; organic solvent or mixture, Tetrahydrofuran (THF), 25° C.): > 100 mg/mL
- Solubility ([4]; organic solvent or mixture, Tetrahydrofuran (THF), 50° C.): 167 to 250 mg/mL (≈ 339 to 508 mM)
- Solubility ([4]; Water, 25° C.): 20 to 25 mg/mL (≈ 40.6 to 50.8 mM)
- Solubility ([4]; Water, 50° C.): 25 to 27 mg/mL (≈ 50.8 to 54.8 mM)
